Here are results for 8 molecules from PubChem BioAssay (NCI).

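96-well plates; 48 h exposure; 5 concentrations. Endpoints by linear interpolation between flanking doses. Not reached: highest tested concentration assigned. Abbreviation: GI50, concentration required for 50% inhibition of growth. The concentration for full growth arrest is given as TGI.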

Among the test systems are LOX IMVI melanoma; NCI/ADR-RES ovarian; MOLT-4 leukemia; ACHN renal; SF-295 CNS; HCT-116 colon; DU-145 prostate; SNB-75 CNS; U251 CNS; HS 578T breast.
Holding throughout (assay): growth of human tumour cells (NCI), 48 h

For `C=CC1(C)CCC2C(=CCC3C2(C)CC(O)C(O)C3(C)COC2OC(CO)C(O)C(O)C2O)C1` (centres undefined), the TGI in the test on LOX IMVI melanoma, with NCI/ADR-RES ovarian, in the test on MOLT-4 leukemia, in the test with ACHN renal, in the test on SF-295 CNS and with HCT-116 colon was > 100000 nM in each case. For the same molecule, the TGI with DU-145 prostate, in the test on SNB-75 CNS, with U251 CNS and with HS 578T breast was > 100000 nM in each case.

Turning to `Cn1cc(-c2ccc3nc(-c4ccc(CC(=O)Nc5cc(C(C)(C)C)no5)cc4)cnc3c2)cn1`, the GI50 is 36 nM in the test with LOX IMVI melanoma; 61.2 nM in the test on NCI/ADR-RES ovarian; 102 nM with MOLT-4 leukemia; 14.4 nM in the test on ACHN renal; 56.3 nM with SF-295 CNS; 29 nM in the test on HCT-116 colon. Moreover, the GI50 was 29.6 nM in the test with DU-145 prostate, 16.1 nM in the test on SNB-75 CNS, 29.8 nM in the test with U251 CNS and 24 nM in the test with HS 578T breast. For the same molecule, the TGI with LOX IMVI melanoma, with NCI/ADR-RES ovarian, in the test on MOLT-4 leukemia, in the test with ACHN renal, with SF-295 CNS and with HCT-116 colon was > 3000 nM each time. The TGI with DU-145 prostate is > 3000 nM; with SNB-75 CNS, > 840 nM; in the test on U251 CNS, > 3000 nM; in the test on HS 578T breast, > 3000 nM.

In the case of `CC1(C)N=C(N)N=C(N)N1c1ccc(OCCCNC(=O)Nc2ccc(S(=O)(=O)F)cc2)c(Cl)c1`, the GI50 in the test with LOX IMVI melanoma was 120 nM; in the test on NCI/ADR-RES ovarian, 98500 nM; in the test on MOLT-4 leukemia it was 386 nM; with ACHN renal, 4450 nM; with SF-295 CNS, 504 nM; in the test on HCT-116 colon, 61.3 nM. The GI50 with DU-145 prostate was 277 nM; in the test with SNB-75 CNS, 1020 nM; in the test on U251 CNS, 211 nM; in the test with HS 578T breast, 4600 nM. Further, the TGI in the test on LOX IMVI melanoma, in the test on NCI/ADR-RES ovarian, in the test on MOLT-4 leukemia, with ACHN renal, in the test on SF-295 CNS and with HCT-116 colon was > 100000 nM in each case. The TGI is > 100000 nM in the test on DU-145 prostate, 50000 nM in the test on SNB-75 CNS, > 100000 nM in the test on U251 CNS and > 78800 nM in the test with HS 578T breast.

On to `Nc1c(C(=O)Nc2cccc(Cl)c2)sc2nc3c(cc12)C(=O)CCC3`, for which the GI50 was 905 nM with LOX IMVI melanoma; 466 nM in the test with NCI/ADR-RES ovarian; > 100000 nM with MOLT-4 leukemia; > 20000 nM in the test on ACHN renal; 243 nM with SF-295 CNS; 431 nM in the test with HCT-116 colon. The GI50 in the test with DU-145 prostate is 377 nM; in the test on SNB-75 CNS it was 227 nM; with U251 CNS, 599 nM; in the test on HS 578T breast, 422 nM. In addition, the TGI in the test with LOX IMVI melanoma, with NCI/ADR-RES ovarian, in the test with MOLT-4 leukemia, in the test with ACHN renal, with HCT-116 colon and in the test on DU-145 prostate was > 100000 nM in each case. Further, the TGI was 2470 nM in the test on SNB-75 CNS, > 60200 nM in the test on U251 CNS and > 100000 nM in the test with HS 578T breast.

Turning to `Nc1ccc(/C=C/c2ccc3ncccc3c2)cc1`, the GI50 was 75000 nM in the test with LOX IMVI melanoma; > 100000 nM in the test on NCI/ADR-RES ovarian; > 100000 nM in the test with MOLT-4 leukemia; > 100000 nM with ACHN renal; 70300 nM in the test with SF-295 CNS; > 100000 nM with HCT-116 colon. The GI50 was > 100000 nM in the test with DU-145 prostate, 37100 nM in the test on SNB-75 CNS, > 100000 nM with U251 CNS and > 100000 nM in the test with HS 578T breast. The TGI with LOX IMVI melanoma, with NCI/ADR-RES ovarian, in the test with MOLT-4 leukemia, in the test with ACHN renal, in the test with SF-295 CNS and in the test on HCT-116 colon was > 100000 nM throughout. Moreover, the TGI in the test with DU-145 prostate, with SNB-75 CNS, in the test on U251 CNS and in the test with HS 578T breast was > 100000 nM throughout.

On to `ClC1=C(Cl)C(Cl)(C2(Cl)C(Cl)=C(Cl)C(Cl)=C2Cl)C(Cl)=C1Cl`, for which the GI50 was 206 nM with LOX IMVI melanoma; 976 nM with NCI/ADR-RES ovarian; 242 nM in the test on MOLT-4 leukemia; 165 nM in the test on ACHN renal; 2050 nM with SF-295 CNS; 189 nM with HCT-116 colon. For the same molecule, the GI50 in the test with DU-145 prostate is 633 nM; with SNB-75 CNS, 1630 nM; in the test with U251 CNS, 1510 nM; in the test on HS 578T breast, 2220 nM. In addition, the TGI is 487 nM in the test with LOX IMVI melanoma; 5610 nM in the test with NCI/ADR-RES ovarian; 2310 nM in the test on MOLT-4 leukemia; 312 nM in the test on ACHN renal; 4140 nM with SF-295 CNS; 439 nM with HCT-116 colon. Further, the TGI amounted to 1990 nM with DU-145 prostate, 4460 nM in the test on SNB-75 CNS, 6910 nM with U251 CNS and 6430 nM in the test with HS 578T breast.

For `Sc1cccc2cccnc12`, the GI50 with LOX IMVI melanoma is 570 nM; with NCI/ADR-RES ovarian it was 955 nM; in the test on MOLT-4 leukemia it was 550 nM; in the test on ACHN renal, 697 nM; with SF-295 CNS, 645 nM; in the test with HCT-116 colon it was 411 nM. Also, the GI50 in the test with DU-145 prostate was 626 nM; in the test with SNB-75 CNS, 2720 nM; with U251 CNS, 598 nM; in the test with HS 578T breast it was 2810 nM. Also, the TGI stood at 11100 nM with LOX IMVI melanoma; 9210 nM in the test with NCI/ADR-RES ovarian; 19700 nM in the test with MOLT-4 leukemia; 12800 nM in the test on ACHN renal; 12800 nM in the test with SF-295 CNS; 7800 nM in the test with HCT-116 colon. Besides, the TGI in the test on DU-145 prostate was determined as 15900 nM; in the test on SNB-75 CNS it was 11600 nM; in the test with U251 CNS, 13900 nM; with HS 578T breast, 16400 nM.

For the molecule `CCOC(=O)c1noc2c1CCc1c-2cn(Cc2ccc(OC)cc2)c1-c1cc(OC)c(OC)c(OC)c1`, the GI50 in the test with LOX IMVI melanoma is 646 nM; in the test on NCI/ADR-RES ovarian, 3520 nM; in the test with MOLT-4 leukemia it was 2700 nM; with ACHN renal it was 3510 nM; with SF-295 CNS, 3020 nM; in the test with HCT-116 colon, 399 nM. The GI50 in the test on DU-145 prostate was 2320 nM; with SNB-75 CNS, 3650 nM; in the test on U251 CNS, 542 nM; in the test with HS 578T breast, 2990 nM. Besides, the TGI with LOX IMVI melanoma, in the test on NCI/ADR-RES ovarian, with MOLT-4 leukemia, in the test with ACHN renal, with SF-295 CNS and with HCT-116 colon was > 100000 nM throughout. Further, the TGI was 6140 nM in the test with DU-145 prostate, > 100000 nM in the test on SNB-75 CNS, > 100000 nM in the test with U251 CNS and > 100000 nM in the test on HS 578T breast.
